This test addresses T1, human GLP-1R (Homo sapiens, UniProt P43220).
T1 construct: host or cells: HEK293
The test is described as follows: GLP-1R cAMP assay (Example B1a, HTRF, 30 min at room temperature). The conditions noted are these: cAMP accumulation in HEK293 expressing human GLP-1R, no BETP, 30 min room temperature (Method B1a, compounds ID 1-609), Table 1; read-out: EC50. Format: cell-based. The essentials: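 Competitive HTRF read-out of cAMP after 30 min room-temperature stimulation, BETP absent, of human GLP-1R-HEK293 cells (1,000/well) in HEPES buffer with 500 μM IBMX and 0.1% BSA. Activation normalised to GLP-1(7-37) positive control. EC50 from 4-parameter non-linear regression.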
(In general: Changes in cAMP serve as a functional read-out for many G protein-coupled receptors.)
T1 sequence (P43220 24-463): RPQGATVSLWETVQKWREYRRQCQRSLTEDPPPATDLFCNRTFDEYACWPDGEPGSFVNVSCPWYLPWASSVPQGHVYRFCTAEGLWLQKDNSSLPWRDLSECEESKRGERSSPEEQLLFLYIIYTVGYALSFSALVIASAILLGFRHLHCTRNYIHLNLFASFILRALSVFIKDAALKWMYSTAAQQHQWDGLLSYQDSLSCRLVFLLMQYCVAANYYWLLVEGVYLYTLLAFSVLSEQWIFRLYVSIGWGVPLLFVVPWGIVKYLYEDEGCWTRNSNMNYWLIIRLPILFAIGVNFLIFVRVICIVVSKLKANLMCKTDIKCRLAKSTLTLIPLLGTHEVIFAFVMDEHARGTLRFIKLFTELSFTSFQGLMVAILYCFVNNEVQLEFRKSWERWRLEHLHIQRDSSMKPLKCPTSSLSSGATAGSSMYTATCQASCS
As a reminder, the EC50 is the concentration needed to bring the measured effect to its halfway point. In the case of `Cc1cc(-n2nc3c(c2-n2ccn(-c4ccc5c(c4)N(C)C(=O)C54CC4)c2=O)[C@@H]2CCC[C@H](C3)N2C(=O)c2cc3cc([C@H]4CCOC(C)(C)C4)ccc3n2[C@@]2(c3noc(=O)[nH]3)C[C@@H]2C)cc(C)c1F` [Compound 545, 3-[(1S,2S)-1-[5-[(4S)-2,2-dimethyltetrahydropyran-4-yl]-2-[(1S,8R)-4-(4-fluoro-3,5-dimethyl-phenyl)-3-[3-(l′-methyl-2′-oxo-spiro[cyclopropane-1,3′-indoline]-6′-yl)-2-oxo-imidazol-1-yl]-4,5,12-triazatricyclo[6.3.1.02,6]dodeca-2,5-diene-12-carbonyl]indol-1-yl]-2-methyl-cyclopropyl]-4H-1,2,4-oxadiazol-5-one], the EC50 is 307 nM.

With `Cc1cc(-n2nc3c(c2-n2ccn(-c4ccc(CS(C)(=O)=O)cc4)c2=O)[C@@H]2CCC[C@H](C3)N2C(=O)c2cc3cc([C@H]4CCOC(C)(C)C4)ccc3n2[C@@]2(c3noc(=O)[nH]3)C[C@@H]2C)cc(C)c1F` [Compound 546, 3-[(1S,2S)-1-[5-[(4S)-2,2-dimethyltetrahydropyran-4-yl]-2-[(1S,8R)-4-(4-fluoro-3,5-dimethyl-phenyl)-3-[3-[4-(methylsulfonylmethyl)phenyl]-2-oxo-imidazol-1-yl]-4,5,12-triazatricyclo[6.3.1.02,6]dodeca-2,5-diene-12-carbonyl]indol-1-yl]-2-methyl-cyclopropyl]-4H-1,2,4-oxadiazol-5-one], the EC50 was no less than 10000 nM.

In the case of `Cc1cc(-n2nc3c(c2-n2ccn(-c4ccc(C(=O)N(C)C5CC5)c(F)c4F)c2=O)[C@@H]2CCC[C@H](C3)N2C(=O)c2cc3cc([C@H]4CCOC(C)(C)C4)ccc3n2[C@@]2(c3noc(=O)[nH]3)C[C@@H]2C)cc(C)c1F` [Compound 547, N-cyclopropyl-4-[3-[(1S,8R)-12-[5-[(4S)-2,2-dimethyltetrahydropyran-4-yl]-1-[(1S,2S)-2-methyl-1-(5-oxo-4H-1,2,4-oxadiazol-3-yl)cyclopropyl]indole-2-carbonyl]-4-(4-fluoro-3,5-dimethyl-phenyl)-4,5,12-triazatricyclo[6.3.1.02,6]dodeca-2,5-dien-3-yl]-2-oxo-imidazol-1-yl]-2,3-difluoro-N-methyl-benzamide], the EC50 is no less than 10000 nM.

As for `Cc1cc(-n2nc3c(c2-n2ccn(-c4ccc5c(cnn5C)c4F)c2=O)CN(C(=O)c2cc4cc([C@H]5CCOC(C)(C)C5)ccc4n2[C@@]2(c4noc(=O)[nH]4)C[C@@H]2C)[C@@H](C)CC3)cc(C)c1F` [Compound 601, 3-[(1S,2S)-1-[5-[(4S)-2,2-dimethyltetrahydropyran-4-yl]-2-[(6S)-2-(4-fluoro-3,5-dimethyl-phenyl)-3-[3-(4-fluoro-1-methyl-indazol-5-yl)-2-oxo-imidazol-1-yl]-6-methyl-4,6,7,8-tetrahydropyrazolo[4,3-c]azepine-5-carbonyl]indol-1-yl]-2-methyl-cyclopropyl]-4H-1,2,4-oxadiazol-5-one], the EC50 is no less than 10000 nM.

With `Cc1cc(-n2nc3c(c2-n2ccn(-c4ccc5ccncc5c4F)c2=O)[C@@H]2CCC[C@H](C3)N2S(=O)(=O)c2cc3cc([C@H]4CCOC(C)(C)C4)ccc3n2[C@@]2(c3noc(=O)[nH]3)C[C@@H]2C)cc(C)c1F` [Compound 602, 3-[(1S,2S)-1-[5-[(4S)-2,2-dimethyltetrahydropyran-4-yl]-2-[[(1S,8R)-4-(4-fluoro-3,5-dimethyl-phenyl)-3-[3-(8-fluoro-7-isoquinolyl)-2-oxo-imidazol-1-yl]-4,5,12-triazatricyclo[6.3.1.02,6]dodeca-2,5-dien-12-yl]sulfonyl]indol-1-yl]-2-methyl-cyclopropyl]-4H-1,2,4-oxadiazol-5-one], the EC50 was found to be 1100 nM.

As to `Cc1cc(-n2nc3c(c2-n2ccn(-c4ccc5c(cnn5C)c4F)c2=O)[C@@H]2CCC[C@H](C3)N2S(=O)(=O)c2cc3cc([C@@H]4CCOC5(CC5)C4)ccc3n2[C@]2(c3noc(=O)[nH]3)C[C@@H]2C)cc(C)c1F` [Compound 603, 3-[(1R,2S)-1-[2-[[(1S,8R)-4-(4-fluoro-3,5-dimethyl-phenyl)-3-[3-(4-fluoro-1-methyl-indazol-5-yl)-2-oxo-imidazol-1-yl]-4,5,12-triazatricyclo[6.3.1.02,6]dodeca-2,5-dien-12-yl]sulfonyl]-5-[(7R)-4-oxaspiro[2.5]octan-7-yl]indol-1-yl]-2-methyl-cyclopropyl]-4H-1,2,4-oxadiazol-5-one], the EC50 was no less than 10000 nM.

`Cc1cc(-n2nc3c(c2-n2ccn(-c4ccc5c(cnn5C)c4F)c2=O)[C@@H]2CCC[C@H](C3)N2S(=O)(=O)c2cc3cc([C@@H]4CCOC5(CC5)C4)ccc3n2[C@@]2(c3noc(=O)[nH]3)C[C@@H]2C)cc(C)c1F` [Compound 604, 3-[(1S,2S)-1-[2-[[(1S,8R)-4-(4-fluoro-3,5-dimethyl-phenyl)-3-[3-(4-fluoro-1-methyl-indazol-5-yl)-2-oxo-imidazol-1-yl]-4,5,12-triazatricyclo[6.3.1.02,6]dodeca-2,5-dien-12-yl]sulfonyl]-5-[(7R)-4-oxaspiro[2.5]octan-7-yl]indol-1-yl]-2-methyl-cyclopropyl]-4H-1,2,4-oxadiazol-5-one]: the EC50 was 839 nM.

Regarding `Cc1cc(-n2nc3c(c2-n2ccn(-c4ccc5ccncc5c4F)c2=O)[C@@H]2CCC[C@H](C3)N2S(=O)(=O)c2cc3cc([C@H]4CCOC(C)(C)C4)ccc3n2[C@]2(c3noc(=O)[nH]3)C[C@@H]2C)cc(C)c1F` [Compound 605, 3-[(1R,2S)-1-[5-[(4S)-2,2-dimethyltetrahydropyran-4-yl]-2-[[(1S,8R)-4-(4-fluoro-3,5-dimethyl-phenyl)-3-[3-(8-fluoro-7-isoquinolyl)-2-oxo-imidazol-1-yl]-4,5,12-triazatricyclo[6.3.1.02,6]dodeca-2,5-dien-12-yl]sulfonyl]indol-1-yl]-2-methyl-cyclopropyl]-4H-1,2,4-oxadiazol-5-one], the EC50 is no less than 10000 nM.

For the compound `Cc1cc(-n2nc3c(c2-n2ccn(-c4ccc5c(cnn5C)c4F)c2=O)[C@H](C)N(C(=O)c2cc4cc([C@H]5CCOC6(CC6)C5)ccc4n2[C@@]2(c4noc(=O)[nH]4)C[C@@H]2C)CCC3)cc(C)c1F` [Compound 606, 3-((1S,2S)-1-(2-((S)-3-(3-(4-fluoro-1-methyl-1H-indazol-5-yl)-2-oxo-2,3-dihydro-1H-imidazol-1-yl)-2-(4-fluoro-3,5-dimethylphenyl)-4-methyl-2,4,5,6,7,8-hexahydropyrazolo[4,3-c]azepine-5-carbonyl)-5-((S)-4-oxaspiro[2.5]octan-7-yl)-1H-indol-1-yl)-2-methylcyclopropyl)-1,2,4-oxadiazol-5 (4H)-one], the EC50 is 80.4 nM.

On to `Cc1cc(-n2nc3c(c2-n2ccn(-c4ccc5c(cnn5C)c4F)c2=O)[C@H](C)N(C(=O)c2cc4cc(C5CCOCC5)ccc4n2[C@@]2(c4noc(=O)[nH]4)C[C@@H]2C)CCC3)cc(C)c1F` [Compound 607, 3-((1S,2S)-1-(2-((S)-3-(3-(4-fluoro-1-methyl-1H-indazol-5-yl)-2-oxo-2,3-dihydro-1H-imidazol-1-yl)-2-(4-fluoro-3,5-dimethylphenyl)-4-methyl-2,4,5,6,7,8-hexahydropyrazolo[4,3-c]azepine-5-carbonyl)-5-(tetrahydro-2H-pyran-4-yl)-1H-indol-1-yl)-2-methylcyclopropyl)-1,2,4-oxadiazol-5 (4H)-one], for which the 50% effective concentration (EC50) was 53.7 nM.

For the compound `Cc1cc(-n2nc3c(c2-n2ccn(-c4ccc5c(cnn5C)c4F)c2=O)[C@@H]2CCC[C@H](C3)N2S(=O)(=O)c2cc3cc([C@H]4CCOC5(CC5)C4)ccc3n2[C@@]2(c3noc(=O)[nH]3)C[C@@H]2C)cc(C)c1F` [Compound 608, 3-[(1S,2S)-1-[2-[[(1S,8R)-4-(4-fluoro-3,5-dimethyl-phenyl)-3-[3-(4-fluoro-1-methyl-indazol-5-yl)-2-oxo-imidazol-1-yl]-4,5,12-triazatricyclo[6.3.1.02,6]dodeca-2,5-dien-12-yl]sulfonyl]-5-[(7S)-4-oxaspiro[2.5]octan-7-yl]indol-1-yl]-2-methyl-cyclopropyl]-4H-1,2,4-oxadiazol-5-one], the EC50 is no less than 10000 nM.

Regarding `Cc1cc(-n2nc3c(c2-n2ccn(-c4ccc5c(cnn5C)c4F)c2=O)[C@@H]2CCC[C@H](C3)N2S(=O)(=O)c2cc3cc([C@H]4CCOC5(CC5)C4)ccc3n2[C@]2(c3noc(=O)[nH]3)C[C@@H]2C)cc(C)c1F` [Compound 609, 3-[(1R,2S)-1-[2-[[(1S,8R)-4-(4-fluoro-3,5-dimethyl-phenyl)-3-[3-(4-fluoro-1-methyl-indazol-5-yl)-2-oxo-imidazol-1-yl]-4,5,12-triazatricyclo[6.3.1.02,6]dodeca-2,5-dien-12-yl]sulfonyl]-5-[(7S)-4-oxaspiro [2.5]octan-7-yl]indol-1-yl]-2-methyl-cyclopropyl]-4H-1,2,4-oxadiazol-5-one], the EC50 is no less than 10000 nM.

The record behind these values is patent US12617783B2, “Heterocyclic GLP-1R agonists” (BIOMEA FUSION, INC., priority 2024, dated 2026).
